Legend:
[1] = test system: HEK/MRP7 cells; assay: [^3H]-paclitaxel accumulation (Example 4); type: cell-based; conditions: 5 μM, 2 h
Experimental: (§1) The effect of PDE5 inhibitors on the intracellular accumulation of paclitaxel in HEK293-pcDNA3.1 and HEK/MRP7 cells was measured using [^3H]-paclitaxel. […] For efflux studies, the cells were treated the same as in the drug accumulation study, and then washed three times with ice-cold PBS, and suspended in fresh medium with or without PDE5 inhibitors. Aliquots were evenly collected at various time points (0, 30, 60, and 120 min). Samples from both accumulation and efflux experiments were washed with ice-cold PBS three times and placed in scintillation fluid, and the radioactivity was measured in a Packard TRI-CARB® 1900CA liquid scintillation analyzer from Packard Instrument Company, Inc. (Downers Grove, Ill.).

[2] = test system: KB-C2 (ABCB1); assay: MTT cytotoxicity/reversal assay (Example 1); type: cell-based, human
Experimental: (§2) The KB-C2 and KB-3-1 were kindly provided by Dr. Akiyama (Kagoshima University, Japan). HEK293-pcDNA3.1 and wild-type HEK/ABCG2 transfected cells were established by selection with G418 after transfecting HEK293 with either (1) empty pcDNA3.1 vector or (2) pcDNA3.1 vector containing full length of ABCG2 coding arginine (R) at amino acid position 482, and were then cultured in a medium with 2 mg/ml of G418 (ABCG2-482-R2 cells). Similarly, the HEK/MRP1 (ABCC1) and HEK/ABCB1 cells were generated by transfecting the HEK293 cells with either the MRP1 expression vector or the ABCB1 expression vector. All of the cell lines were grown in Dulbecco's modified Eagle's medium (DMEM) supplemented with 10% bovine serum, 100 units/ml penicillin, and […] streptomycin in a humidified incubator containing 5% CO2 at 37° C.
(§3) The MTT assay was used to assess cytotoxicity. The cultured cells were harvested with trypsin and resuspended in a final concentration of 4×10^3 cells/well for KB-3-1; 7.5×10^3 cells/well for KB-C2; and 8×10^3 for all of the other cell lines used in this study. Cells were seeded evenly in 96-well multiplates. […] After 68 h of incubation, 20 μl of the MTT solution (4 mg/ml) was added to each well, and the plate was further incubated for 4 h at 37° C., allowing viable cells to convert the yellow-colored MTT into dark-blue formazan crystals. Subsequently, the medium was discarded, and 100 μl of DMSO was added into each well to dissolve the formazan crystals, generating purple color. The absorbance was determined at 570 nm by an OPSYS Microplate Reader from DYNEX Technologies, Inc. (Chantilly, Va.). […] The degree of the reversal of multidrug resistance (MDR) was calculated by dividing the IC50 of an anticancer drug, e.g., an antineoplastic or chemotherapeutic drug (agent, compound), in a cell type in the absence of a reversal agent by the IC50 of the anticancer drug in the same cell type in the presence of the reversal agent. The IC50 values were calculated from survival curves using the Bliss method.

[3] = test system: KB-3-1; assay: MTT cytotoxicity/reversal assay (Example 1); type: cell-based, human
Experimental: as §2, §3

[4] = test system: KB-C2 cells (ABCB1); assay: [^3H]-paclitaxel accumulation (Example 1); type: cell-based, human; conditions: 10 μM
Experimental: The intracellular accumulation of [^3H]-paclitaxel was measured as follows. […] Intracellular paclitaxel accumulation was measured by incubating cells with 0.1 μM [^3H]-paclitaxel for 2 h in the presence or absence of the reversal agents at 37° C. The cells were washed three times with ice-cold PBS, then suspended in fresh medium with or without reversal agents at 37° C. Aliquots of the extracellular medium (40 μl) were collected at various time points (0, 60, 120 min), and finally the cells were collected and lysed in 10 mM lysis buffer (pH 7.4, containing 1% Triton X-100 and 0.2% SDS). Each sample was placed in scintillation fluid and the radioactivity was measured in a Packard TRI-CARB1 1900CA liquid scintillation analyzer from Packard Instrument Company, Inc. (Downers Grove, Ill.).

[5] = test system: HEK/MRP7 cells; assay: [^3H]-paclitaxel efflux (Example 4); type: cell-based; conditions: 5 μM PDE5 inhibitor
Experimental: as §1

[6] = test system: HEK293/pcDNA3.1; assay: MTT cytotoxicity/reversal assay (Example 1); type: cell-based
Experimental: as §2, §3

[7] = test system: HEK/MRP7; assay: MTT cytotoxicity assay (Example 4); type: cell-based;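 note: drug IC50 in HEK/MRP7 divided by IC50 in parental HEK293-pcDNA3.1 cells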
Experimental: (§4) The MRP7 cDNA was generously provided by Dr. Gary Kruh (University of Illinois, Chicago, Ill.) and inserted into the pcDNA3.1 expression vector. […] Individual colonies were selected in medium containing G418 (1 mg/ml) and cultured for further analysis.
(§5) MTT colorimetric assay was performed to analyze the drug sensitivity as previously described (Shi et al. (2007) Cancer Res. 67:11012-20). HEK293-pcDNA3.1 and HEK/MRP7 cells were seeded into 96-well plates in triplicate at 6000 cells/well.
(§6) After drug incubation of 68 h, 20 μl MTT solution (4 mg/ml) was added into each well. […] The Bliss method was used to calculate the IC50 values according to survival curves.

[8] = test system: HEK 293-pcDNA-3.1; assay: MTT cytotoxicity assay (Example 4); type: cell-based; conditions: HEK 293-pcDNA-3.1
Experimental: as §4, §5, §6

[9] = test system: HEK/ABCB1 (ABCB1); assay: MTT cytotoxicity/reversal assay (Example 1); conditions: HEK/ABCB1
Experimental: The KB-C2 and KB-3-1 were kindly provided by Dr. Akiyama (Kagoshima University, Japan). […] Similarly, the HEK/MRP1 (ABCC1) and HEK/ABCB1 cells were generated by transfecting the HEK293 cells with either the MRP1 expression vector or the ABCB1 expression vector. All of the cell lines were grown in Dulbecco's modified Eagle's medium (DMEM) supplemented with 10% bovine serum, 100 units/ml penicillin, and […] streptomycin in a humidified incubator containing 5% CO2 at 37° C.
as §3

[10] = HEK293/pcDNA3.1, +5 μM reversal agent
[11] = HEK293/pcDNA3.1, +10 μM reversal agent

CN1CC(=O)N2[C@H](c3ccc4c(c3)OCO4)c3[nH]c4ccccc4c3C[C@@H]2C1=O [Tadalafil, tadalafil]
increase of intracellular accumulation of [^3H]-paclitaxel [1]: 2.1 fold
fold reversal, cisplatin ([2]; +5 μM reversal agent): (1.01)
fold reversal, colchicine ([2]; +5 μM reversal agent): (4.19)
fold reversal, paclitaxel ([2]; +5 μM reversal agent): (2.53)
fold reversal, cisplatin ([2]; +10 μM reversal agent): (0.93)
fold reversal, colchicine ([2]; +10 μM reversal agent): (6.38)
fold reversal, paclitaxel ([2]; +10 μM reversal agent): (4.48)
fold reversal, cisplatin ([3]; +5 μM reversal agent): (0.96)
fold reversal, colchicine ([3]; +5 μM reversal agent): (0.86)
fold reversal, paclitaxel ([3]; +5 μM reversal agent): (0.93)
fold reversal, cisplatin ([3]; +10 μM reversal agent): (1.06)
fold reversal, colchicine ([3]; +10 μM reversal agent): (0.89)
fold reversal, paclitaxel ([3]; +10 μM reversal agent): (1.02)
effect on paclitaxel accumulation [4]: had significant effects on paclitaxel accumulation
percentage of intracellular [^3H]-paclitaxel ([5]; 30 min): 76.44%
percentage of intracellular [^3H]-paclitaxel ([5]; 60 min): 63.41%
percentage of intracellular [^3H]-paclitaxel ([5]; 120 min): 46.48%
fold reversal, vincristine ([6]; HEK293/pcDNA3.1 (Table 6), +10 μM reversal agent): (1.09)
fold reversal, cisplatin [6, 10]: (0.99)
fold reversal, paclitaxel [6, 10]: (0.99)
fold reversal, vincristine [6, 10]: (1.15)
fold reversal, SN-38 [6, 11]: (0.96)
fold reversal, cisplatin [6, 11]: (1.12)
fold reversal, paclitaxel [6, 11]: (1.21)
fold reversal, vincristine [6, 11]: (1.35)
fold-resistance, docetaxel ([7]; +1.25 μM reversal agent): (10.91)
fold-resistance, paclitaxel ([7]; +1.25 μM reversal agent): (8.06)
fold-resistance, vinblastine ([7]; +1.25 μM reversal agent): (4.58)
fold-resistance, cisplatin ([7]; +5 μM reversal agent): (1.12)
fold-resistance, docetaxel ([7]; +5 μM reversal agent): (8.35)
fold-resistance, paclitaxel ([7]; +5 μM reversal agent): (5.87)
fold-resistance, vinblastine ([7]; +5 μM reversal agent): (3.62)
fold-resistance, docetaxel ([8]; +1.25 μM reversal agent): (1.09)
fold-resistance, paclitaxel ([8]; +1.25 μM reversal agent): (1.07)
fold-resistance, vinblastine ([8]; +1.25 μM reversal agent): (1.06)
fold-resistance, cisplatin ([8]; +5 μM reversal agent): (1.11)
fold-resistance, docetaxel ([8]; +5 μM reversal agent): (1.02)
fold-resistance, paclitaxel ([8]; +5 μM reversal agent): (0.93)
fold-resistance, vinblastine ([8]; +5 μM reversal agent): (0.95)
fold reversal, cisplatin ([9]; +5 μM reversal agent): (0.94)
fold reversal, paclitaxel ([9]; +5 μM reversal agent): (1.37)
fold reversal, vincristine ([9]; +5 μM reversal agent): (1.50)
fold reversal, cisplatin ([9]; +10 μM reversal agent): (1.09)
fold reversal, paclitaxel ([9]; +10 μM reversal agent): (2.26)
fold reversal, vincristine ([9]; +10 μM reversal agent): (2.45)

From patent US8673914B2, “Use of phosphodiesterase inhibitors for treating multidrug resistance” (St. John's University, priority 2011, dated 2014)
